29 compounds from US20110230472A1, “RING-FUSED AZOLE DERIVATIVE HAVING PI3K-INHIBITING ACTIVITY” (Shionogi & Co., Ltd., priority 2008, published 2011) can be followed below.

Sequence of PI-3 kinase γ (P48736 whole entry): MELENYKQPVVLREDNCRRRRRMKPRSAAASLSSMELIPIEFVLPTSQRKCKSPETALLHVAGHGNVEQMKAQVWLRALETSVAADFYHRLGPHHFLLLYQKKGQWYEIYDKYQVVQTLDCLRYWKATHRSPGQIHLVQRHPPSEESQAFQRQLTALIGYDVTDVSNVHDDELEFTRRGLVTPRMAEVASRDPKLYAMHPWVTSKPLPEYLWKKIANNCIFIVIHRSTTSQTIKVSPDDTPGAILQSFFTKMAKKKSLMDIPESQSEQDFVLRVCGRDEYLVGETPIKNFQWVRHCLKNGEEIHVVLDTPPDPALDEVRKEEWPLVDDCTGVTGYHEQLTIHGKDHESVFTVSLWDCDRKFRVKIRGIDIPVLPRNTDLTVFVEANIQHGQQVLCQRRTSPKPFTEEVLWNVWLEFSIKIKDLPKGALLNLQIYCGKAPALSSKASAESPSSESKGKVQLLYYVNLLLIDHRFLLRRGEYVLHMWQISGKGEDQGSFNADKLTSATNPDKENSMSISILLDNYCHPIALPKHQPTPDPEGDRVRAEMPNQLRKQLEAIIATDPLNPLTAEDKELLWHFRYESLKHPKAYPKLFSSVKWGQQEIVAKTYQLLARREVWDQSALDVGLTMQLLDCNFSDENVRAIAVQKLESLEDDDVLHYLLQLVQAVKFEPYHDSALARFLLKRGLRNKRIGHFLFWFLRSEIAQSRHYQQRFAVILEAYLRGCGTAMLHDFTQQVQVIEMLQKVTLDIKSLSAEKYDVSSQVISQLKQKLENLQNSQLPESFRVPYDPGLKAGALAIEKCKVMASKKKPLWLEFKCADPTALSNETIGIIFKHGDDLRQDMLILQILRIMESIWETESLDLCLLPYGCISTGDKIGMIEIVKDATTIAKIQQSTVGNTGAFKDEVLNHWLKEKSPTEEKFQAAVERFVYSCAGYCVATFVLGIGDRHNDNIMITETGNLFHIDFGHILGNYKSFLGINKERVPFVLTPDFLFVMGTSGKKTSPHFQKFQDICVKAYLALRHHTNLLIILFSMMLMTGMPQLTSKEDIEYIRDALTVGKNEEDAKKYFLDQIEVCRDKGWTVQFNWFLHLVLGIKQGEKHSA

This assay deals with PI-3 kinase γ (Homo sapiens, UniProt P48736). The assay can be described thus: PI3Kγ inhibitory activity, PI3-kinase HTRF assay (inhibition ratio). Type of assay: biochemical. Conditions: 0.5 h; PI3Kγ, compound at 50 μM. The protocol: The PI3Kγ inhibitory activity of a compound was evaluated using PI3-kinase HTRF™ assay (Millipore) according to the following procedure:
To each well of a testing plate, 5 μL of a compound solution containing 10% DMSO (200 μmol/L or 40 μmol/L as the concentration of the compound), 5 μL of a substrate solution (40 μmol/L phosphatidylinositol (4,5)-bisphosphate, 20 mmol/L MgCl2, 10 mmol/L DTT), and 5 μL of a enzyme solution (80 μg/mL PI-3 kinase γ, 10 mmol/L MgCl2, 5 mmol/L DTT) were added, and then allowed to stand for 10 minutes.
Then, 5 μL of a reaction solution (40 μmol/L ATP, 10 mmol/L MgCl2, 5 mmol/L DTT) was added thereto. After reacting for 30 minutes at room temperature, 5 μL of a solution containing EDTA and biotinylated phosphatidylinositol (3,4,5)-triphosphate were added to quench the reaction.
5 μL of a detection reagent containing a europium-labeled anti-GST antibody, the GST-tagged PH domain, and allophycocyanin-labeled streptavidin was added thereto. After 18 hours, HTRF (excitation wavelength: 330 nm, measured wavelengths: 620 nm and 665 nm) was measured.
HTRF ratio was defined as the value obtained by dividing the amount of fluorescence obtained at the measured wavelength 665 nm by the amount of fluorescence obtained at 620 nm. The HTRF ratio in the absence of a compound was defined as 100% activity and the HTRF ratio in the absence of PI-3 kinase γ was defined as 0% activity to calculate an inhibition ratio which was defined as the PI3Kγ inhibitory activity of a compound at 50 μmol/L or 10 μmol/L.
(In TR-FRET formats the signal depends on donor and acceptor labels being close together.)
In the case of `CNC(=O)Nc1cc2n(n1)CCN2c1cc(C(=O)O)cc(-c2ccccc2)c1` [Compound I-163], the inhibition – broadly, the change of the read-out against control, counted positive when it falls – at 50 µM is at least 95%.

Regarding `CNC(=O)Nc1cc2n(n1)CCN2c1cccc(-c2cnc(C)o2)c1` [Compound I-164], the inhibition at 50 µM was at least 95%. For `CNC(=O)Nc1cc2n(n1)CCN2c1cccc(C(C)=O)c1` [Compound I-165], the inhibition at 50 µM is at least 95%. With `CNC(=O)Nc1cc2n(n1)CCN2c1cc(Nc2ccccc2)cc(C(=O)O)c1` [Compound I-166], the inhibition at 50 µM was at least 95%. Consider `CNC(=O)Nc1cc2n(n1)CCN2c1cc(Br)cc(C(=O)OC(C)(C)C)c1` [Compound I-167], for which the inhibition at 50 µM was found to be 92%.

Regarding `CNC(=O)Nc1cc2n(n1)CCN2c1ccc(F)c(OC)c1` [Compound I-168], the inhibition at 50 µM is at least 95%.

`CNC(=O)Nc1cc2n(n1)CCN2c1ccc(C(=O)N(C)C)cc1` [Compound I-169]: the inhibition at 50 µM was at least 95%. On to `CNC(=O)Nc1nc2c(s1)CN(c1cc(C(=O)NCCO)nc(Cl)n1)CC2` [Compound I-170], for which the inhibition at 50 µM was at least 95%. Consider `CNC(=O)Nc1cc2n(n1)CCN2c1cc(Br)cc(C(=O)N2CCOCC2)c1` [Compound I-173], for which the inhibition at 50 µM is at least 95%. Turning to `CNC(=O)Nc1cc2n(n1)CCN2c1cc(Br)cc(C(=O)NCCC(=O)OC(C)(C)C)c1` [Compound I-174], the inhibition at 50 µM was at least 95%. On to `CNC(=O)Nc1cc2n(n1)CCN2c1cc(Br)cc(C(=O)Nc2cccc(C(=O)OC(C)(C)C)c2)c1` [Compound I-175], for which the inhibition at 50 µM stood at 94%. As to `CNC(=O)Nc1cc2n(n1)CCN2c1ccc2ccccc2c1` [Compound I-176], the inhibition at 50 µM is at least 95%. For the compound `CNC(=O)Nc1cc2n(n1)CCN2c1cc(Br)cc(C(N)=O)c1` [Compound I-178], the inhibition at 50 µM is at least 95%.

Consider `CNC(=O)Nc1cc2n(n1)CCN2c1cc(Br)cc(C(=O)NC)c1` [Compound I-179], for which the inhibition at 50 µM is at least 95%. Consider `CNC(=O)Nc1cc2n(n1)CCN2c1cc(Br)cc(C(=O)NC(C)(C)C)c1` [Compound I-180], for which the inhibition at 50 µM was at least 95%.

As to `CNC(=O)Nc1cc2n(n1)CCN2c1cc(Br)cc(C(=O)N2CCN(C(=O)OC(C)(C)C)CC2)c1` [Compound I-182], the inhibition at 50 µM turned out to be 79%.

As to `CNC(=O)Nc1cc2n(n1)CCN2c1cc(Br)cc(C(=O)NCCOC)c1` [Compound I-183], the inhibition at 50 µM is at least 95%. With `CNC(=O)Nc1cc2n(n1)CCN2c1ccc(F)c(C(=O)OC(C)(C)C)c1` [Compound I-184], the inhibition at 50 µM was at least 95%. Consider `CNC(=O)Nc1cc2n(n1)CCN2c1cc(Br)cc(C(=O)NCCC(=O)O)c1` [Compound I-186], for which the inhibition at 50 µM is 89%. With `CNC(=O)Nc1cc2n(n1)CCN2c1cccc(-c2csc(NC(=O)OC(C)(C)C)n2)c1` [Compound I-188], the inhibition at 50 µM amounted to 91%. Consider `CNC(=O)Nc1cc2n(n1)CCN2c1ccc(F)c(C(=O)O)c1` [Compound I-189], for which the inhibition at 50 µM is at least 95%. As for `CNC(=O)Nc1cc2n(n1)CCN2c1cccc(S(C)(=O)=O)c1` [Compound I-191], the inhibition at 50 µM is at least 95%. As for `CNC(=O)Nc1cc2n(n1)CCN2c1cccc(-c2csc(N)n2)c1` [Compound I-192], the inhibition at 50 µM is at least 95%. Turning to `CNC(=O)Nc1cc2n(n1)CCN2c1ccc2c(c1)CCC2=O` [Compound I-193], the inhibition at 50 µM is at least 95%. With `CNC(=O)Nc1cc2n(n1)CCN2c1ccc2c(c1)CCNC2=O` [Compound I-194], the inhibition at 50 µM was 95%. The result for `CNC(=O)Nc1cc2n(n1)CCN2c1cc(Br)cc(C(=O)N(C)C)c1` [Compound I-195] reads 93%.

Turning to `CCOC(=O)c1sc(N2CCn3nc(NC(=O)NC)cc32)nc1C` [Compound I-196], the inhibition at 50 µM stood at 79%. In the case of `CNC(=O)Nc1cc2n(n1)CCN2c1cc(C(=O)N2CCOCC2)cc(-c2cccnc2)c1` [Compound I-199], the inhibition at 50 µM came to 89%. Next, `CNC(=O)Nc1cc2n(n1)CCN2c1nc(C)c(C(=O)O)s1` [Compound I-201]: at least 95%.
